Measurements from PMC10608985, “Retention Behavior of Anticancer Thiosemicarbazides in Biomimetic Chromatographic Systems and In Silico Calculations” (Molecules, 2023).

What was measured:
[1] = design: method as in Kozyra et al. [31]; conditions: MeOH/20 mM acetate buffer, pH 7.4, ref Kozyra et al. [31], cited from earlier work; for log kw C-18: intercept of Soczewiński–Wachtmeister equation (water as mobile phase); for -S C-18: slope of Soczewiński–Wachtmeister equation
[2] = target: T1, human serum albumin (HSA) (Homo sapiens, UniProt P02768); assay: HPLC on immobilized HSA column, affinity and % plasma–protein binding; type: in vitro ADME; conditions: for log K HSA: binding equilibrium constant from calibration curve (Equation 8) of log k HSA; for log k HSA: retention on HSA column, 50 mM ammonium acetate pH 7.4 / propan-2-ol 85/15 (v/v); for fraction unbound: human, pH 7.4, % plasma–protein binding converted from log K HSA (Equation 10), read-out: %PPB HSA (converted)
T1 construct: purchased Chiralpac
Procedure: (§1) Measurements on HSA and AGP immobilized protein columns were carried out with […] isopropanol content in the aqueous mobile phase.
(§2) The standard calibration curve was used to predict log K values (K—binding equilibrium constant) of investigated compounds to HSA and AGP. Next, the log K values were converted into a percentage of plasma–protein binding (%PPB) of the compounds (Table 2). […] It is the lowest for compound 16 with -NO2 substituent, unsubstituted compound 1, and fluorine derivatives 2 and 9. In a group of […] derivatives in the same position of the phenyl ring, the %PPB to AGP increases with the increase in the atomic weight of the halogen atom and the lipophilicity of the molecule.
(§3) HPLC measurements were performed using a liquid chromatograph Knauer (Knauer, Berlin, Germany) with a dual pump, a 20 µL simple injection valve, and a UV–visible detector. The compounds were detected under UV light at 280 nm at room temperature. The retention time of an unretained solute (t0) was determined by the injection of a small amount of citric acid dissolved in water.
(§4) A human serum albumin (HSA) immobilized on the 5 µm silica gel column 100 × 3 mm (Chiralpac) and an α1-acid glycoprotein (AGP) immobilized on the 5 µm silica gel column 100 × 4 mm (Chiralpac) were used. The compounds were dissolved at 0.5 mg/mL concentration in 50% propan-2-ol and ammonium acetate solution (pH = 7.4) mixtures for HSA measurements. The mobile phase was composed of 50 mM ammonium acetate solution (pH = 7.4) and propan-2-ol at 85/15 (v/v) for AGP, respectively. The flow of mobile phases was 0.5 mL×min^−1. Log k values for the selected mobile phase were determined for all studied compounds and standard substances. The % protein plasma binding (% PPB) values were calculated from the calibration curve according to Valko et al..
(§5) Calibration of the protein columns: The column performance check and the calibration check were performed before measurements. The racemic mixture of warfarin was used for their performance evaluation. The following calibration set of drugs was applied: bromazepam, carbamazepine, diclofenac, nicardipine, nizatidine, piroxicam for HSA and bromazepam, chlorpromazine, imipramine, nicardipine, nizatidine, propranolol, and warfarin for AGP. The analytical standards were purchased from Sigma Aldrich Steinhen, Steinheim am Albuch, Germany). The drugs were dissolved at 0.5 mg/mL concentration in 50% propan-2-ol and ammonium acetate solution mixtures (pH = 7.4). The obtained log k values from HPLC were plotted against the log K values (K—binding equilibrium constant, log K—linearized PPB) based on the literature data for plasma–protein binding (%, PPB). The following relationships were obtained: log KHSA = 0.2513 (±0.0984) + 1.0525 (±0.1171) log k HSA(8) n=6, R=0.9761, R^2 = 0.9528, Radj2 = 0.9410, s = 0.1948 log KAGP = 0.1733 (±0.0574) + 0.8902 (±0.0787) log k AGP(9) n=7, R=0.9810, R^2 = 0.9623, Radj2 = 0.9548, s = 0.1113
(§6) Log K values were converted into %PPB using the following equation [15]:(10) %PPB=101×10^logK/1+10^logK

[3] = HPLC lipophilicity on IAM (immobilized artificial membrane, phosphatidylcholine) stationary phase; type: physicochemical; conditions: pH 7.4; for Log k IAM: Table S2; for log kw IAM: intercept, linear extrapolation to water; for log kw IAM / -S IAM: ACN/20 mM phosphate buffer; for -S IAM: slope of Soczewiński–Wachtmeister equation
Procedure: (§7) For the evaluation of the compounds the following stationary phases were used: C-18; biomimetic, IAM; cholesterol (Chol); immobilized proteins HSA and AGP. For the lipophilicity determination, MeOH (C-18, Chol) or ACN (IAM) were applied as the organic modifiers. The measurements were performed at pH 7.4 of the mobile phase. The regular changes in the retention of all solutes used as organic modifier content in the mobile phase on three studied stationary phases were found. It is expressed by the Soczewiński–Wachtmeister Equation (1):log k = log kw + S (% organic modifier)(1) where log kw—the intercept; S—the slope of regression curve. […] Log kw as well as S parameters are commonly applied as lipophilicity descriptors.
as §3
A Rexchrom IAM.PC.DD2 (12 μm, 100 × 4.6 mm, 300 Å) (Regis Technologies, Morton Grove, IL, USA) column was used as the stationary phase. The compounds were dissolved at a concentration of 0.5 mg × mL^−1 in MeOH. The mobile phases consisted of different volume fractions of ACN and 20 mM phosphate buffer; the aqueous phase maintained a pH = 7.4 (0.02 M KH2PO4, Na2HPO4 and 0.15 M KCl). The acetonitrile concentration ranged from 0.05 to 0.4 (v/v), depending on the structure of compound, at 0.05 intervals (Table S2 in the Supplementary Materials). The flow rate was 1 mL × min^−1.

[4] = tested on: α1-acid glycoprotein (AGP); assay: HPLC on immobilized AGP column, affinity and % plasma–protein binding; type: in vitro ADME, human; conditions: for log K AGP: binding equilibrium constant from calibration curve (Equation 9) of log k AGP; for fraction unbound: human, pH 7.4, % plasma–protein binding converted from log K AGP (Equation 10), read-out: %PPB AGP (converted); for log k AGP: retention on AGP column, 50 mM ammonium acetate pH 7.4 / propan-2-ol 85/15 (v/v)
Procedure: as §1, §2, §3, §4, §5, §6

[5] = HPLC lipophilicity on cholesterol (Chol) stationary phase; type: physicochemical; conditions: pH 7.4; for Log k Chol: Table S3; for log kw Chol: intercept, linear extrapolation to water; for log kw Chol / -S Chol: MeOH/20 mM acetate buffer; for -S Chol: slope of Soczewiński–Wachtmeister equation
Procedure: as §7, §3
Cogent 4 UDC Cholesterol (150 × 2.1 mm, 4 µm) MicroSolv Technology Corporation (Leland, NC, USA) column was used. The mobile phase consisted of different volume mixtures of MeOH as the organic modifier and 20 mM acetate buffer as the aqueous phase, to obtain pH = 7.4. The concentrations of the organic modifier were in the range from 0.3 to 0.8 (v/v) with step 0.05 or 0.1 (Table S3 in the Supplementary Materials). The flow rate was 0.35 mL × min^−1.

T1 sequence (P02768 25-609): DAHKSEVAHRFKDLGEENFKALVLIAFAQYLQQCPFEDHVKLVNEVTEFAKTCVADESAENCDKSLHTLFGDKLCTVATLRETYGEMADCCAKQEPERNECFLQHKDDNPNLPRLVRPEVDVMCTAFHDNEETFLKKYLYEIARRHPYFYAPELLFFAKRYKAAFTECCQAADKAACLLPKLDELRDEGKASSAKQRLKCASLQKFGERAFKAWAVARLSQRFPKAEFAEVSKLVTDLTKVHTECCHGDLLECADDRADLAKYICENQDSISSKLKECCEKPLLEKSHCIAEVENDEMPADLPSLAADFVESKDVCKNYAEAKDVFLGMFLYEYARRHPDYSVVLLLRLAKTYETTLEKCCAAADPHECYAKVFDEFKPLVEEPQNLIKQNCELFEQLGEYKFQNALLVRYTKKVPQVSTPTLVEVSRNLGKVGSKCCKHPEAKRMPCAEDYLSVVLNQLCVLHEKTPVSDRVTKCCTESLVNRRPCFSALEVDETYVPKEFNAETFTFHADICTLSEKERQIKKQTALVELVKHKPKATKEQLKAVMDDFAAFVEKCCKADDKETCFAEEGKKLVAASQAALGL

log K HSA [2]	log k HSA [2]	Log k IAM ([3]; ACN 0.15 v/v in mobile phase)	Log k IAM ([3]; ACN 0.20 v/v in mobile phase)	Log k IAM ([3]; ACN 0.25 v/v in mobile phase)	Log k IAM ([3]; ACN 0.30 v/v in mobile phase)	Log k IAM ([3]; ACN 0.35 v/v in mobile phase)	log kw IAM [3]	-S IAM [3]	log K AGP [4]	fraction unbound [4]	log k AGP [4]	Log k Chol ([5]; MeOH 0.45 v/v in mobile phase)	Log k Chol ([5]; MeOH 0.50 v/v in mobile phase)	Log k Chol ([5]; MeOH 0.60 v/v in mobile phase)	Log k Chol ([5]; MeOH 0.80 v/v in mobile phase)	log kw Chol [5]	-S Chol [5]	SMILES	log kw C-18 [1]	-S C-18 [1]	also measured
2.2183	1.8689	1.494	1.133	0.710	0.154	-0.027	2.6121	7.6211	0.8829	0.107	0.7971	1.095	0.716	0.574	-0.783	3.4243	5.1337	O=C(COc1ccccc1)NNC(=S)Nc1cc(Cl)ccc1Cl [Compound 14]	3.7050	5.6376	Log k IAM ([3]; ACN 0.40 v/v in mobile phase): -0.366; Log k Chol ([5]; MeOH 0.70 v/v in mobile phase): -0.138
1.6879	1.3649	1.240	0.870	0.557	0.067	-0.103	–	6.2034	0.5886	0.197	0.4665	0.978	0.627	0.400	-1.016	3.4517	5.4505	O=C(COc1ccccc1)NNC(=S)Nc1ccc(Cl)cc1Cl [Compound 13]	3.2152	5.1803	fraction unbound [2]: 0.01; Log k IAM ([3]; ACN 0.40 v/v in mobile phase): -0.430; Log k Chol ([5]; MeOH 0.40 v/v in mobile phase): 1.246; Log k Chol ([5]; MeOH 0.70 v/v in mobile phase): -0.329
1.0986	0.8050	0.284	0.085	-0.142	-0.518	-0.490	1.0288	4.4559	0.4018	0.277	0.2567	0.440	0.110	-0.157	-1.006	2.2209	4.0307	O=C(COc1ccccc1)NNC(=S)Nc1ccccc1 [Compound 1]	1.7866	3.7611	fraction unbound [2]: 0.065; Log k IAM ([3]; ACN 0.05 v/v in mobile phase): 0.999; Log k IAM ([3]; ACN 0.10 v/v in mobile phase): 0.548; Log k IAM ([3]; ACN 0.40 v/v in mobile phase): -0.556; Log k Chol ([5]; MeOH 0.30 v/v in mobile phase): 0.979; Log k Chol ([5]; MeOH 0.35 v/v in mobile phase): 0.857; Log k Chol ([5]; MeOH 0.40 v/v in mobile phase): 0.620
1.2775	0.9750	0.455	0.234	-0.010	-0.358	-0.461	1.1961	4.8953	0.3986	0.278	0.2531	–	-0.037	-0.314	-1.104	1.9241	3.7822	O=C(COc1ccccc1)NNC(=S)Nc1ccccc1F [Compound 2]	2.0774	4.3603	fraction unbound [2]: 0.041; Log k IAM ([3]; ACN 0.05 v/v in mobile phase): 0.968; Log k IAM ([3]; ACN 0.10 v/v in mobile phase): 0.692; Log k Chol ([5]; MeOH 0.30 v/v in mobile phase): 0.744; Log k Chol ([5]; MeOH 0.35 v/v in mobile phase): 0.656; Log k Chol ([5]; MeOH 0.40 v/v in mobile phase): 0.441
1.9333	1.5981	1.009	0.673	0.368	-0.038	-0.210	1.8779	6.0976	0.5075	0.23	0.3754	0.836	0.479	0.206	-0.946	2.9842	4.8387	O=C(COc1ccccc1)NNC(=S)Nc1ccc(Cl)cc1 [Compound 10]	2.5914	4.5132	fraction unbound [2]: 0.002; Log k IAM ([3]; ACN 0.10 v/v in mobile phase): 1.235; Log k Chol ([5]; MeOH 0.30 v/v in mobile phase): 1.475; Log k Chol ([5]; MeOH 0.35 v/v in mobile phase): 1.331; Log k Chol ([5]; MeOH 0.40 v/v in mobile phase): 1.050; Log k Chol ([5]; MeOH 0.70 v/v in mobile phase): -0.396
